Data: patent US11053204B2, “Pyrimidinyloxy benzene derivatives as herbicides” (FMC Corporation, priority 2015, dated 2021)

Legend:
Type in all cases: in vivo
[1] = system: Italian ryegrass (Lolium multiflorum); assay: Test A preemergence, visual injury rating; details: 0 to 100 scale (0 no effect, 100 complete control)
Source text: (§1) Seeds of plant species selected from barnyardgrass (Echinochloa crus-galli), kochia (Kochia scoparia), ragweed (common ragweed, Ambrosia elatior), Italian ryegrass (Lolium multiflorum), large (Lg) crabgrass (Digitaria sanguinalis), giant foxtail (Setaria faberii), morningglory (Ipomoea spp.), pigweed (Amaranthus retroflexus), velvetleaf (Abutilon theophrasti), wheat (Triticum aestivum), and corn (Zea mays) were planted into a blend of loam soil and sand and treated preemergence with a directed soil spray using test chemicals formulated in a non-phytotoxic solvent mixture which included a surfactant.
(§2) At the same time, plants selected from these crop and weed species and also blackgrass (Alopecurus myosuroides), and galium (catchweed bedstraw, Galium aparine) were planted in pots containing the same blend of loam soil and sand and treated with postemergence applications of test chemicals formulated in the same manner. Plants ranged in height from 2 to 10 cm and were in the one- to two-leaf stage for the postemergence treatment. Treated plants and untreated controls were maintained in a greenhouse for approximately 10 days, after which time all treated plants were compared to untreated controls and visually evaluated for injury. Plant response ratings, summarized in Table A, are based on a 0 to 100 scale where 0 is no effect and 100 is complete control. A dash (-) response means no test result.

[2] = system: barnyardgrass (Echinochloa crus-galli); assay: Test A preemergence, visual injury rating; details: 0 to 100 scale (0 no effect, 100 complete control)
Source text: as §1, §2

[3] = system: kochia (Kochia scoparia); assay: Test A preemergence, visual injury rating; details: 0 to 100 scale (0 no effect, 100 complete control)
Source text: as §1, §2

[4] = system: pigweed (Amaranthus retroflexus); assay: Test A preemergence, visual injury rating; details: 0 to 100 scale (0 no effect, 100 complete control)
Source text: as §1, §2

[5] = system: ragweed (common ragweed, Ambrosia elatior); assay: Test A preemergence, visual injury rating; details: 0 to 100 scale (0 no effect, 100 complete control)
Source text: as §1, §2

[6] = system: giant foxtail (Setaria faberii); assay: Test A preemergence, visual injury rating; details: 0 to 100 scale (0 no effect, 100 complete control)
Source text: as §1, §2

[7] = system: barnyardgrass (Echinochloa crus-galli); assay: Test B flooded paddy test, plant response rating; details: 250 g ai/ha; Flood; scale of 0 to 100 where 0 is no effect and 100 is complete control; 13 to 15 days
Source text: (§3) At time of treatment, test pots were flooded to 3 cm above the soil surface, treated by application of test compounds directly to the paddy water, and then maintained at that water depth for the duration of the test. Treated plants and controls were maintained in a greenhouse for 13 to 15 days, after which time all species were compared to controls and visually evaluated. […] A dash (-) response means no test result.

[8] = system: rice (Oryza sativa); assay: Test B flooded paddy test, plant response rating; details: 250 g ai/ha; Flood; scale of 0 to 100 where 0 is no effect and 100 is complete control; 13 to 15 days
Source text: as §3

[9] = system: sedge, umbrella (small-flower umbrella sedge, Cyperus difformis); assay: Test B flooded paddy test, plant response rating; details: 250 g ai/ha; Flood; scale of 0 to 100 where 0 is no effect and 100 is complete control; 13 to 15 days
Source text: as §3

[10] = system: ducksalad (Heteranthera limosa); assay: Test B flooded paddy test, plant response rating; details: 250 g ai/ha; Flood; scale of 0 to 100 where 0 is no effect and 100 is complete control; 13 to 15 days
Source text: as §3

[11] = system: wheat (Triticum aestivum); assay: Test A postemergence, visual injury rating; details: 0 is no effect, 100 is complete control
Source text: as §1, §2

[12] = system: Italian ryegrass (Lolium multiflorum); assay: Test A postemergence, visual injury rating; details: 0 is no effect, 100 is complete control
Source text: as §1, §2

[13] = system: corn (Zea mays); assay: Test A postemergence, visual injury rating; details: 0 is no effect, 100 is complete control
Source text: as §1, §2

[14] = system: barnyardgrass (Echinochloa crus-galli); assay: Test A postemergence, visual injury rating; details: 0 is no effect, 100 is complete control
Source text: as §1, §2

[15] = system: galium (catchweed bedstraw, Galium aparine); assay: Test A postemergence, visual injury rating; details: 0 is no effect, 100 is complete control
Source text: as §1, §2

[16] = system: pigweed (Amaranthus retroflexus); assay: Test A postemergence, visual injury rating; details: 0 is no effect, 100 is complete control
Source text: as §1, §2

[17] = system: ragweed (common ragweed, Ambrosia elatior); assay: Test A postemergence, visual injury rating; details: 0 is no effect, 100 is complete control
Source text: as §1, §2

[18] = system: blackgrass (Alopecurus myosuroides); assay: Test A postemergence, visual injury rating; details: 0 is no effect, 100 is complete control
Source text: as §1, §2

[19] = system: giant foxtail (Setaria faberii); assay: Test A postemergence, visual injury rating; details: 0 is no effect, 100 is complete control
Source text: as §1, §2

[20] = system: kochia (Kochia scoparia); assay: Test A postemergence, visual injury rating; details: 0 is no effect, 100 is complete control
Source text: as §1, §2

SMILES	Ryegrass, Italian plant response rating ([1]; 125 g ai/ha)	Ryegrass, Italian plant response rating ([1]; 500 g ai/ha)	Barnyardgrass plant response rating ([2]; 125 g ai/ha)	Barnyardgrass plant response rating ([2]; 500 g ai/ha)	Kochia plant response rating ([3]; 125 g ai/ha)	Kochia plant response rating ([3]; 500 g ai/ha)	Pigweed plant response rating ([4]; 125 g ai/ha)	Pigweed plant response rating ([4]; 500 g ai/ha)	Ragweed plant response rating ([5]; 125 g ai/ha)	Ragweed plant response rating ([5]; 500 g ai/ha)	Foxtail, Giant plant response rating ([6]; 125 g ai/ha)	Foxtail, Giant plant response rating ([6]; 500 g ai/ha)	Wheat plant response rating (0 to 100 scale) ([11]; 125 g ai/ha)	Wheat plant response rating (0 to 100 scale) ([11]; 500 g ai/ha)	Ryegrass, Italian plant response rating (0 to 100 scale) ([12]; 125 g ai/ha)	Ryegrass, Italian plant response rating (0 to 100 scale) ([12]; 500 g ai/ha)	Corn plant response rating (0 to 100 scale) ([13]; 125 g ai/ha)	Corn plant response rating (0 to 100 scale) ([13]; 500 g ai/ha)	Barnyardgrass plant response rating (0 to 100 scale) ([14]; 125 g ai/ha)	Barnyardgrass plant response rating (0 to 100 scale) ([14]; 500 g ai/ha)	other results
O=C(OCCCC(F)(F)F)c1c(Oc2ncc(Cl)cn2)cccc1C(F)(F)F [Compound 65]	10	30	30	100	60	90	100	100	0	80	100	100	0	0	0	0	10	20	30	70	Plant response rating, Barnyardgrass [7]: 0; Plant response rating, Rice [8]: 0; Plant response rating, Sedge, Umbrella [9]: 85; Plant response rating, Ducksalad [10]: 70; Galium plant response rating (0 to 100 scale) ([15]; 125 g ai/ha): 20; Galium plant response rating (0 to 100 scale) ([15]; 500 g ai/ha): 70; Pigweed plant response rating (0 to 100 scale) ([16]; 125 g ai/ha): 90; Pigweed plant response rating (0 to 100 scale) ([16]; 500 g ai/ha): 100; Ragweed plant response rating (0 to 100 scale) ([17]; 125 g ai/ha): 10; Ragweed plant response rating (0 to 100 scale) ([17]; 500 g ai/ha): 30; Blackgrass plant response rating (0 to 100 scale) ([18]; 125 g ai/ha): 20; Blackgrass plant response rating (0 to 100 scale) ([18]; 500 g ai/ha): 40; Foxtail, Giant plant response rating (0 to 100 scale) ([19]; 125 g ai/ha): 40; Foxtail, Giant plant response rating (0 to 100 scale) ([19]; 500 g ai/ha): 90
O=C(OCCC(F)(F)F)c1ccccc1Oc1ncc(Cl)cn1 [Compound 17]	0	0	0	0	0	0	0	10	0	0	0	0	0	0	0	0	0	20	0	0	Kochia plant response rating (0 to 100 scale) ([20]; 125 g ai/ha): 0; Kochia plant response rating (0 to 100 scale) ([20]; 500 g ai/ha): 0; Galium plant response rating (0 to 100 scale) ([15]; 125 g ai/ha): 0; Galium plant response rating (0 to 100 scale) ([15]; 500 g ai/ha): 0; Pigweed plant response rating (0 to 100 scale) ([16]; 125 g ai/ha): 20; Pigweed plant response rating (0 to 100 scale) ([16]; 500 g ai/ha): 40; Ragweed plant response rating (0 to 100 scale) ([17]; 125 g ai/ha): 0; Ragweed plant response rating (0 to 100 scale) ([17]; 500 g ai/ha): 0; Blackgrass plant response rating (0 to 100 scale) ([18]; 125 g ai/ha): 0; Blackgrass plant response rating (0 to 100 scale) ([18]; 500 g ai/ha): 0; Foxtail, Giant plant response rating (0 to 100 scale) ([19]; 125 g ai/ha): 0; Foxtail, Giant plant response rating (0 to 100 scale) ([19]; 500 g ai/ha): 0
